The source made the active and inactive calls. The calls are words filed in the database; no cut-off is given here.
Assays:
[1] = system: Hepatocyte; assay: Increase in glucose uptake in mouse primary hepatocytes assessed as glucose uptake level at 20 uM after 24 hrs by glucose oxidase method relative to control; type: functional
[2] = biological target: T1, Hexokinase-4 (Rattus norvegicus) (UniProt P17712); assay: Activation of glucokinase in rat INS1(832/13) cells assessed as increase in glucose sensitive insulin secretion at 20 uM after 2 hrs in presence of 5.5 mM glucose by AlphaLISA method relative to control; type: cell-based
T1 sequence (whole entry): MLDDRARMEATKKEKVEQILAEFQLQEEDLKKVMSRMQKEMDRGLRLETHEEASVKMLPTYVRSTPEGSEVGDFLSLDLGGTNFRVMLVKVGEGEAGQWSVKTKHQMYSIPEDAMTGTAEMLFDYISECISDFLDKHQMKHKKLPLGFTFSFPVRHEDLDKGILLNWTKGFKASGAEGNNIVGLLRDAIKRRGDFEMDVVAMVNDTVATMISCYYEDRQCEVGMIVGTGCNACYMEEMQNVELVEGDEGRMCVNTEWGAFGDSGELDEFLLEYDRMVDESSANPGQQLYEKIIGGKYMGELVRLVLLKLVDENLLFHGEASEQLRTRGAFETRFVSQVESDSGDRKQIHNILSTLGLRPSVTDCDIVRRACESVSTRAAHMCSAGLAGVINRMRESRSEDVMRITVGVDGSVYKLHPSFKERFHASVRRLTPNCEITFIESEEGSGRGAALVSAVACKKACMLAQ

[3] = biological target: T2, Hexokinase-4 (Homo sapiens, UniProt P35557); assay: Activation of recombinant human liver glucokinase 2 assessed as assessed as reduction in Km for glucose in presence of 5 mM glucose by G6PDH coupled assay
T2 sequence (P35557 whole entry): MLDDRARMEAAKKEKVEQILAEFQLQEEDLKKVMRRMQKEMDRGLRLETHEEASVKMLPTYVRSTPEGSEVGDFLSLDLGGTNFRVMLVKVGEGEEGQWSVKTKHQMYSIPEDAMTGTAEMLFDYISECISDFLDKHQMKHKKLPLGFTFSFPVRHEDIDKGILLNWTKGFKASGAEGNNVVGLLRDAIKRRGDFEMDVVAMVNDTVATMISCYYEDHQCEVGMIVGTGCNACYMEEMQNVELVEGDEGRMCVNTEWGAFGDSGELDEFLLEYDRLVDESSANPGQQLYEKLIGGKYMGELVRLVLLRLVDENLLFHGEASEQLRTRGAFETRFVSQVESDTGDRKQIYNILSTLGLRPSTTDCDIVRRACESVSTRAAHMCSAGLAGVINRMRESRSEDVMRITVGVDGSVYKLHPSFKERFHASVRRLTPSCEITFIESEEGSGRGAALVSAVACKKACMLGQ

[4] = biological target: T2, Hexokinase-4; assay: Activation of recombinant human liver glucokinase 2 assessed as […] in presence of 5 mM glucose by G6PDH coupled assay
[5] = system: INS1(832/13); assay: Cytoprotection in rat INS1(832/13) cells assessed as reduction in streptozocin induced beta cells apoptosis after 20 hrs by MTT based spectrophotometric method; type: functional, cell-based; details: INS-1 832/13, 20 h
[6] = system: INS1(832/13); assay: Cytoprotection in rat INS1(832/13) cells assessed as reduction in streptozocin induced beta cells apoptosis after 20 hrs by MTT based spectrophotometric method relative to control; type: functional; design: scale not given: the % may be the effect or the level left
[7] = Tmax in Sprague-Dawley rat at 10 mg/kg, po by LC-MS/MS analysis; type: ADME, organism-based; details: in vivo
[8] = system: Mus musculus; assay: Antidiabetic activity in dosed db/db mouse BKS.Cg-Dock7m+/+ Leprdb/J assessed as reduction in glucose AUC level at 30 to 60 mg/kg/day, po for 5 weeks measured up to 120 mins after over night fasting at fourth week during OGTT method; type: functional, organism-based
[9] = system: Mus musculus; assay: Toxicity in db/db mouse BKS.Cg-Dock7m+/+ Leprdb/J assessed as dyslipidemia by measuring effect on low density lipoprotein-cholesterol level at 15 to 60 mg/kg, po administered daily for 5 weeks; type: organism-based; details: in vivo, 840 h
[10] = system: Mus musculus; assay: Antidiabetic activity in po dosed db/db mouse BKS.Cg-Dock7m+/+ Leprdb/J assessed as reduction in glucose excursion administered daily for 5 weeks measured up to 120 mins after over night fasting at fourth week by OGTT method; type: functional, organism-based
[11] = system: Mus musculus; assay: Antidiabetic activity in db/db mouse BKS.Cg-Dock7m+/+ Leprdb/J assessed as reduction in HbA1c level at 15 to 60 mg/kg/day, po for 5 weeks; type: functional, organism-based
[12] = system: Mus musculus; assay: Toxicity in db/db mouse BKS.Cg-Dock7m+/+ Leprdb/J assessed as dyslipidemia by measuring effect on cholesterol level at 15 to 60 mg/kg, po administered daily for 5 weeks; type: organism-based; details: in vivo, 840 h
[13] = system: Mus musculus; assay: Toxicity in C57BL/6J mouse assessed as decrease in fasting blood glucose level at 200 mg/kg, po administered as single dose measured over 6 hrs; type: organism-based; details: in vivo
[14] = Half life in Sprague-Dawley rat at 10 mg/kg, po by LC-MS/MS analysis; type: ADME, organism-based; details: in vivo
[15] = system: Mus musculus; assay: Toxicity in db/db mouse BKS.Cg-Dock7m+/+ Leprdb/J assessed as dyslipidemia by measuring effect on high density lipoprotein-cholesterol level at 15 to 60 mg/kg, po administered daily for 5 weeks; type: organism-based; details: in vivo, 840 h
[16] = AUC (0 to infinity) in Sprague-Dawley rat at 10 mg/kg, po by LC-MS/MS analysis; type: ADME, organism-based; design: dose 10 mg/kg, time infinity, route oral; details: in vivo
[17] = system: Mus musculus; assay: Antidiabetic activity in db/db mouse BKS.Cg-Dock7m+/+ Leprdb/J assessed as reduction in fasting plasma glucose level at 15 to 60 mg/kg/day, po for 5 weeks; type: functional, organism-based

fold change (FC) [2]	EC50 [4] [nM]	SMILES	Activity [1]	further results
inactive	7000	CC(C)(C)OC(=O)N1CCc2nc(NC(=O)c3cc(OCc4ccccc4)cc(Oc4ccc(S(C)(=O)=O)cc4)c3)sc2C1	21%	
1.14	820	COCC(C)Oc1cc(Oc2cccc(S(C)(=O)=O)c2)cc(C(=O)Nc2nc3c(s2)CN(C(=O)OC(C)(C)C)CC3)c1 (configuration not stated)	25%	
inactive	180	CC(C)(C)OC(=O)N1CCc2nc(NC(=O)c3cc(Oc4ccc(S(C)(=O)=O)cc4)cc(OC4CCCC4)c3)sc2C1	26%	
1.24	90	COCC(C)Oc1cc(Oc2ccc(C(=O)N(C)C)cc2)cc(C(=O)Nc2nc3c(s2)CN(C(=O)OC(C)(C)C)CC3)c1 (configuration not stated)	inactive	
1.3	200	COC[C@H](C)Oc1cc(Oc2cc(F)cc(F)c2)cc(C(=O)Nc2nc3c(s2)CN(C(=O)OC(C)(C)C)CC3)c1	15%	
5.68	690	COC[C@H](C)Oc1cc(Oc2ccc(C(=O)N3CCC3)cc2)cc(C(=O)Nc2nc3c(s2)CN(C(=O)OC)CC3)c1	16%	
2.47	290	COC[C@H](C)Oc1cc(Oc2ccc(C(=O)N3CCC3)cc2)cc(C(=O)Nc2nc3c(s2)CN(c2ccccn2)CC3)c1	15%	
1.42	200	COCC(C)Oc1cc(Oc2ccc(S(C)(=O)=O)nc2)cc(C(=O)Nc2nc3c(s2)CN(C(=O)OC(C)(C)C)CC3)c1 (configuration not stated)	35%	
inactive	550	CC(C)(C)OC(=O)N1CCc2nc(NC(=O)c3cc(Oc4ccc(S(C)(=O)=O)cc4)cc(OC4CCCCC4)c3)sc2C1	29%	
inactive	140	CCS(=O)(=O)c1ccc(Oc2cc(OC(C)COC)cc(C(=O)Nc3nc4c(s3)CN(C(=O)OC(C)(C)C)CC4)c2)cc1 (configuration not stated)	34%	
6.07	210	COCCN1CCc2nc(NC(=O)c3cc(Oc4ccc(C(=O)N5CCC5)cc4)cc(O[C@@H](C)COC)c3)sc2C1	13%	
		Cc1cnc(NC(=O)c2cc(Oc3cnc(C(=O)N(C)C)nc3)c3cc(C)oc3c2)cn1 [NERIGLIATIN]		EC50 [5]: 2150 nM; Activity [6]: 114%
3.52	500	COC[C@H](C)Oc1cc(Oc2ccc(C(=O)N3CCC3)cc2)cc(C(=O)Nc2nc3c(s2)CN(C(=O)N(C)C)CC3)c1	21%	
1.72	320	COCC(C)Oc1cc(Oc2ccc(S(C)(=O)=O)cc2)cc(C(=O)Nc2nc3c(s2)CN(C(=O)OC(C)(C)C)CC3)c1 (configuration not stated)	36%	
1.1	330	COC[C@H](C)Oc1cc(Oc2ccc(C(=O)N3CCC3)c(F)c2)cc(C(=O)Nc2nc3c(s2)CN(C(=O)OC(C)(C)C)CC3)c1	19%	
6.51	170	COC[C@H](C)Oc1cc(Oc2ccc(C(=O)N3CCC3)cc2)cc(C(=O)Nc2nc3c(s2)CN(c2ncccn2)CC3)c1	14%	
4.62	490	COC[C@H](C)Oc1cc(Oc2ccc(C(=O)N3CCC3)cc2)cc(C(=O)Nc2nc3c(s2)CN(c2ccncn2)CC3)c1	16%	
inactive	100	COCC(C)Oc1cc(Oc2ccc(S(C)(=O)=O)cc2)cc(C(=O)Nc2nc3c(s2)CCC3)c1 (configuration not stated)	31%	

SMILES	fold change (FC) [2]	EC50 [4] [nM]	Activity [1]	further results
COCC(C)Oc1cc(Oc2ccc(S(C)(=O)=O)cc2)cc(C(=O)Nc2nc3c(s2)CCCC3)c1 (configuration not stated)	inactive	890	31%	EC50 [3]: 30 nM; EC50 [5]: 700 nM; Activity [6]: 66%
COC[C@H](C)Oc1cc(Oc2ccc(C(=O)N3CCC3)cc2)cc(C(=O)Nc2nc3c(s2)CN(C(=O)OC(C)(C)C)CC3)c1	2.69	160	15%	Tmax [7]: 34.8 min; EC50 [3]: 50 nM; Activity [8]: Active; Activity [9]: Non-Toxic; EC50 [5]: 490 nM; Activity [10]: Dose-dependent effect; Activity [11]: Active; Activity [12]: Non-Toxic; Activity [6]: 161%; Activity [13]: Non-Toxic; half-life [14]: 30 min; Activity [15]: Non-Toxic; AUC(0-inf) [16]: 7580 ng·h/mL; Activity [17]: Active
COCC(C)Oc1cc(Oc2ccc(C(=O)N3CCC3)cc2)cc(C(=O)Nc2nc3c(s2)CN(C(=O)OC(C)(C)C)CC3)c1 (configuration not stated)	2.29	290	33%	EC50 [3]: 150 nM; EC50 [5]: 680 nM; Activity [6]: 180%

Source: ChEMBL document CHEMBL4190311, “Discovery of cycloalkyl-fused N-thiazol-2-yl-benzamides as tissue non-specific glucokinase activators: Design, synthesis, and biological evaluation” (Eur J Med Chem, 2017)
